Test results from PubChem BioAssay (NCI).
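Test compounds were applied to cells in 96-well plates for 48 hours at 5 doses. GI50 marks 50% less growth. TGI: concentration producing complete growth inhibition.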

Assays:
Assay in all cases: DTP human tumour cell line panel, 48 h
[1] = system: ACHN renal
[2] = system: HCC-2998 colon
[3] = system: SF-539 CNS
[4] = system: RPMI-8226 leukemia
[5] = system: COLO 205 colon
[6] = system: SK-MEL-2 melanoma
[7] = system: SK-MEL-5 melanoma
[8] = system: HCT-15 colon
[9] = system: HCT-116 colon
[10] = system: HS 578T breast
[11] = system: SK-OV-3 ovarian
[12] = system: NCI-H226 lung
[13] = system: UACC-257 melanoma
[14] = system: UO-31 renal
[15] = system: UACC-62 melanoma
[16] = system: SF-268 CNS
[17] = system: MDA-MB-435
[18] = system: SK-MEL-28 melanoma
[19] = system: NCI-H23 lung
[20] = system: DU-145 prostate
[21] = system: HOP-92 NSCLC
[22] = system: NCI-H522 lung
[23] = system: 786-0 renal
[24] = system: BT-549 breast
[25] = system: HT29 colon
[26] = system: MCF7 breast
[27] = system: RXF 393 renal
[28] = system: SNB-75 CNS
[29] = system: SN12C renal
[30] = system: M14 melanoma
[31] = system: A549 NSCLC
[32] = system: NCI-H460 lung
[33] = system: A498 renal
[34] = system: CAKI-1 renal
[35] = system: OVCAR-4 ovarian
[36] = system: IGROV1 ovarian
[37] = system: KM12 colon
[38] = system: U251 CNS
[39] = system: EKVX NSCLC
[40] = system: NCI/ADR-RES ovarian
[41] = system: K-562 leukemia
[42] = system: OVCAR-8 ovarian
[43] = system: OVCAR-5 ovarian
[44] = system: MOLT-4 leukemia
[45] = system: MALME-3M melanoma
[46] = system: OVCAR-3 ovarian
[47] = system: SR leukemia
[48] = system: HOP-62 NSCLC
[49] = system: SW-620 colon
[50] = system: CCRF-CEM leukemia
[51] = system: TK-10 renal
[52] = system: MDA-MB-231 breast
[53] = system: SNB-19 CNS
[54] = system: PC-3 prostate
[55] = system: HL-60(TB) leukemia
[56] = system: T-47D breast
[57] = system: SF-295 CNS
[58] = system: LOX IMVI melanoma

With `COc1ccc(-c2nc3ncccn3c2/C=C/C(=O)c2cc(OC)c(OC)c(OC)c2)cc1` as the compound, how does the GI50 [1] read?
The GI50 was 1570 nM.

What about the TGI [1] of the same compound?
Its TGI is 3170 nM.

And the GI50 [2]?
Its GI50 is 1580 nM.

And the TGI [2]?
The TGI was 2920 nM.

What about the GI50 [3] of the same compound?
Its GI50 is 1360 nM.

And the TGI [3]?
The TGI was 2950 nM.

What about the GI50 [4] of the same compound?
Its GI50 is 2210 nM.

And the TGI [4]?
Its TGI is > 100000 nM.

What about the GI50 [5] of the same compound?
Its GI50 is 1700 nM.

What about the TGI [5] of the same compound?
The TGI was 3070 nM.

And the GI50 [6]?
Its GI50 is 1870 nM.

What about the TGI [6] of the same compound?
Its TGI is 4690 nM.

What about the GI50 [7] of the same compound?
Its GI50 is 1520 nM.

And the TGI [7]?
Its TGI is 2870 nM.

And the GI50 [8]?
The GI50 was 1380 nM.

And the TGI [8]?
The TGI was 3940 nM.

What about the GI50 [9] of the same compound?
Its GI50 is 1170 nM.

What about the TGI [9] of the same compound?
The TGI was 2390 nM.

What about the GI50 [10] of the same compound?
Its GI50 is 1910 nM.

What about the TGI [10] of the same compound?
The TGI was 14700 nM.

What about the GI50 [11] of the same compound?
Its GI50 is 2500 nM.

What about the TGI [11] of the same compound?
Its TGI is 7010 nM.

And the GI50 [12]?
The GI50 was 2280 nM.

What about the TGI [12] of the same compound?
Its TGI is 6920 nM.

What about the GI50 [13] of the same compound?
Its GI50 is 1880 nM.

What about the TGI [13] of the same compound?
The TGI was 4810 nM.

And the GI50 [14]?
The GI50 was 514 nM.

And the TGI [14]?
The TGI was 4170 nM.

What about the GI50 [15] of the same compound?
Its GI50 is 1820 nM.

And the TGI [15]?
The TGI was 3420 nM.

And the GI50 [16]?
Its GI50 is 2360 nM.

What about the TGI [16] of the same compound?
The TGI was 9620 nM.

And the GI50 [17]?
Its GI50 is 2280 nM.

And the TGI [17]?
Its TGI is 10600 nM.

What about the GI50 [18] of the same compound?
Its GI50 is 1650 nM.

What about the TGI [18] of the same compound?
Its TGI is 3270 nM.

What about the GI50 [19] of the same compound?
The GI50 was 1350 nM.

What about the TGI [19] of the same compound?
The TGI was 3370 nM.

What about the GI50 [20] of the same compound?
The GI50 was 2550 nM.

And the TGI [20]?
Its TGI is 9480 nM.

And the GI50 [21]?
Its GI50 is 1430 nM.

And the TGI [21]?
The TGI was 12000 nM.

And the GI50 [22]?
The GI50 was 1660 nM.

And the TGI [22]?
The TGI was 3890 nM.

What about the GI50 [23] of the same compound?
Its GI50 is 1840 nM.

What about the TGI [23] of the same compound?
The TGI was 5510 nM.

And the GI50 [24]?
Its GI50 is 1450 nM.

And the TGI [24]?
Its TGI is 5920 nM.

What about the GI50 [25] of the same compound?
The GI50 was 2190 nM.

What about the TGI [25] of the same compound?
The TGI was 4380 nM.

What about the GI50 [26] of the same compound?
Its GI50 is 1140 nM.

What about the TGI [26] of the same compound?
The TGI was 3320 nM.

And the GI50 [27]?
Its GI50 is 1110 nM.

What about the TGI [27] of the same compound?
Its TGI is 2570 nM.

What about the GI50 [28] of the same compound?
Its GI50 is 1890 nM.

And the TGI [28]?
Its TGI is 5050 nM.

And the GI50 [29]?
Its GI50 is 2560 nM.

What about the TGI [29] of the same compound?
Its TGI is 35100 nM.

And the GI50 [30]?
Its GI50 is 1530 nM.

And the TGI [30]?
The TGI was 3080 nM.

And the GI50 [31]?
Its GI50 is 2710 nM.

What about the TGI [31] of the same compound?
The TGI was > 100000 nM.

What about the GI50 [32] of the same compound?
Its GI50 is 1430 nM.

And the TGI [32]?
The TGI was 2740 nM.

And the GI50 [33]?
The GI50 was 2130 nM.

And the TGI [33]?
Its TGI is 6280 nM.

What about the GI50 [34] of the same compound?
The GI50 was 1580 nM.

And the TGI [34]?
The TGI was 5060 nM.

And the GI50 [35]?
The GI50 was 2910 nM.

And the TGI [35]?
The TGI was 14300 nM.

And the GI50 [36]?
Its GI50 is 2200 nM.

What about the TGI [36] of the same compound?
The TGI was 6290 nM.

And the GI50 [37]?
Its GI50 is 1610 nM.

What about the TGI [37] of the same compound?
The TGI was 3040 nM.

What about the GI50 [38] of the same compound?
Its GI50 is 1290 nM.

And the TGI [38]?
The TGI was 4260 nM.

And the GI50 [39]?
The GI50 was 1610 nM.

And the TGI [39]?
Its TGI is 6060 nM.

And the GI50 [40]?
The GI50 was 1560 nM.

And the TGI [40]?
The TGI was 4860 nM.

And the GI50 [41]?
The GI50 was 2630 nM.

What about the TGI [41] of the same compound?
Its TGI is > 100000 nM.

And the GI50 [42]?
Its GI50 is 2720 nM.

What about the TGI [42] of the same compound?
Its TGI is > 100000 nM.

And the GI50 [43]?
Its GI50 is 1530 nM.

And the TGI [43]?
The TGI was 3590 nM.

What about the GI50 [44] of the same compound?
Its GI50 is 3100 nM.

And the TGI [44]?
The TGI was > 100000 nM.

And the GI50 [45]?
The GI50 was 1810 nM.

What about the TGI [45] of the same compound?
Its TGI is 17100 nM.

And the GI50 [46]?
The GI50 was 1750 nM.

And the TGI [46]?
The TGI was 4790 nM.

And the GI50 [47]?
Its GI50 is 1530 nM.

What about the TGI [47] of the same compound?
Its TGI is > 100000 nM.

What about the GI50 [48] of the same compound?
Its GI50 is 2830 nM.

What about the TGI [48] of the same compound?
The TGI was 10300 nM.

What about the GI50 [49] of the same compound?
The GI50 was 1750 nM.

And the TGI [49]?
Its TGI is 3940 nM.

What about the GI50 [50] of the same compound?
The GI50 was 4010 nM.

And the TGI [50]?
The TGI was > 100000 nM.

And the GI50 [51]?
Its GI50 is 2880 nM.

And the TGI [51]?
The TGI was 10400 nM.

What about the GI50 [52] of the same compound?
The GI50 was 2730 nM.

What about the TGI [52] of the same compound?
Its TGI is 17200 nM.

And the GI50 [53]?
The GI50 was 3010 nM.

What about the TGI [53] of the same compound?
Its TGI is 10300 nM.

And the GI50 [54]?
Its GI50 is 4320 nM.

And the TGI [54]?
Its TGI is 53200 nM.

And the GI50 [55]?
Its GI50 is 2520 nM.

What about the TGI [55] of the same compound?
The TGI was > 100000 nM.

What about the GI50 [56] of the same compound?
The GI50 was 2530 nM.

What about the TGI [56] of the same compound?
Its TGI is 14900 nM.

And the GI50 [57]?
The GI50 was 2390 nM.

And the TGI [57]?
The TGI was 4830 nM.

What about the GI50 [58] of the same compound?
The GI50 was 1460 nM.

What about the TGI [58] of the same compound?
The TGI was 3000 nM.
